Experimental data from patent US20250353841A1 (BIOGEN MA INC., priority 2022, published 2025).

The molecules below were run on mutant Huntington (HTT) protein (assay: HTT Mutant HTRF iPSC assay (mHTT protein lowering)). Details: human iPSC derived from a HTT patient with a poly-Q49 mutation.
Assay type: cell-based
`Cc1cn2nc(-c3cc(OC(F)(F)F)c4nc(C5CCNCC5)cn4c3)cc(C)c2n1` [Compound 549, 2,8-dimethyl-6-(2-(piperidin-4-yl)-8-(trifluoromethoxy)imidazo[1,2-a]pyridin-6-yl)imidazo[1,2-b]pyridazine] gave an IC50 of 100 to 1000 nM. Work on `Cc1cn2nc(-c3cc(F)c4nc(NC(=O)C5CCCN(C)C5)nn4c3)cc(C)c2n1` (single isomer, unassigned) [Compound 325] yielded an IC50 of 100 to 1000 nM. `Cc1cn2nc(-c3cc(F)c4nc(NC(=O)C5CCCNC5)cn4c3)cc(C)c2n1` (centres unmarked) [Compound 248, N-(6-(2,8-dimethylimidazo[1,2-b]pyridazin-6-yl)-8-fluoroimidazo[1,2-a]pyridin-2-yl)piperidine-3-carboxamide] was tested, and the IC50 was under 100 nM. With `CCN1CCC(c2cn3cc(-c4ccc5nc(C)cn5n4)cc(F)c3n2)CC1` [Compound 3, 6-(2-(1-ethylpiperidin-4-yl)-8-fluoroimidazo[1,2-a]pyridin-6-yl)-2-methylimidazo[1,2-b]pyridazine] the IC50 was under 100 nM. Molecule `Cc1cn2nc(-c3cc(F)c4nc([C@H]5CCCNC5)cn4c3)cc(C)c2n1` (single isomer, unassigned) [Compound 117] has an IC50 of 100 to 1000 nM. Work on `Cc1cc(-c2cc(F)c3nc(C4CCN(C5CC5)CC4)cn3c2)nc2cn(C)nc12` [Compound 171, 5-(2-(1-cyclopropylpiperidin-4-yl)-8-fluoroimidazo[1,2-a]pyridin-6-yl)-2,7-dimethyl-2H-pyrazolo[4,3-b]pyridine] yielded an IC50 of under 100 nM. `Cc1cn2nc(-c3cc(F)c4nc([C@H]5CCC6(CCNCC6)C5)cn4c3)cc(C)c2n1` (single isomer, unassigned) [Compound 114] was tested, and the IC50 was under 100 nM. `Cc1cn2nc(-c3cc(F)c4nc([C@H]5C[C@@]6(CN[C@H](C)C6)C5)cn4c3)cc(C)c2n1` (single isomer, unassigned) [Compound 176, 6-(8-fluoro-2-((2S*,4r,7S*)-7-methyl-6-azaspiro[3.4]octan-2-yl)imidazo[1,2-a]pyridin-6-yl)-2,8-dimethylimidazo[1,2-b]pyridazine] gave an IC50 of under 100 nM. `Cc1cn2nc(-c3cc(F)c4nc(N5CCNCC5)cn4c3)cc(C)c2n1` [Compound 127, 6-(8-fluoro-2-piperazin-1-yl-imidazo[1,2-a]pyridin-6-yl)-2,8-dimethyl-imidazo[1,2-b]pyridazine] was tested, and the IC50 was 1000 to 9000 nM. `CCN1CC[C@@H](N(C)c2nc3c(F)cc(-c4cc(C)c5nc(C)cn5n4)cc3o2)C[C@H]1C` (stereo in doubt) [Compound 487, rel-6-(2,8-dimethylimidazo[1,2-b]pyridazin-6-yl)-N-((2R,4R)-1-ethyl-2-methylpiperidin-4-yl)-4-fluoro-N-methylbenzo[d]oxazol-2-amine] was tested, and the IC50 was under 100 nM. Work on `Cc1cn2nc(-c3cc(F)c4cn(C5CCNCC5)nc4c3)cc(C)c2n1` [Compound 135, 6-(4-fluoro-2-(piperidin-4-yl)-2H-indazol-6-yl)-2,8-dimethylimidazo[1,2-b]pyridazine] yielded an IC50 of 100 to 1000 nM. `Fc1cc(-c2ccc3nscc3c2)cn2cc(C3CCNCC3)nc12` [Compound 33, 5-(8-fluoro-2-(piperidin-4-yl)imidazo[1,2-a]pyridin-6-yl)benzo[c]isothiazole] showed an IC50 of 1000 to 9000 nM. In the case of `Cc1cn2nc(-c3cc(F)c4nc(NC(=O)C5CN(CCF)C5)cn4c3)cc(C)c2n1` [Compound 266, N-(6-(2,8-dimethylimidazo[1,2-b]pyridazin-6-yl)-8-fluoroimidazo[1,2-a]pyridin-2-yl)-1-(2-fluoroethyl)azetidine-3-carboxamide], the IC50 is reported as under 100 nM. For `Cc1cn2nc(-c3cc(F)c4nc(NC(=O)C5CN(C6CCC6)C5)cn4c3)cc(C)c2n1` [Compound 263, 1-cyclobutyl-N-(6-(2,8-dimethylimidazo[1,2-b]pyridazin-6-yl)-8-fluoroimidazo[1,2-a]pyridin-2-yl)azetidine-3-carboxamide], the IC50 was under 100 nM. In the case of `Cc1cn2nc(-c3cc(F)c4nc(C5CCNC(C)(C)C5)cn4c3)ccc2n1` (centres unmarked) [Compound 62, 6-(2-(2,2-dimethylpiperidin-4-yl)-8-fluoroimidazo[1,2-a]pyridin-6-yl)-2-methylimidazo[1,2-b]pyridazine], the IC50 is reported as under 100 nM. `Cc1cn2nc(-c3cc(F)c4[nH]c(C5CCN(C6CCC6)CC5)nc4c3)cc(C)c2n1` [Compound 426, 6-(2-(1-cyclobutylpiperidin-4-yl)-7-fluoro-1H-benzo[d]imidazol-5-yl)-2,8-dimethylimidazo[1,2-b]pyridazine] gave an IC50 of under 100 nM. Work on `Cc1cn2nc(-c3cc(F)c4nc([C@@H]5CCCNC5)cn4c3)cc(C)c2n1` (single isomer, unassigned) [Compound 118] yielded an IC50 of under 100 nM. `Cc1cn2nc(-c3cc(F)c4nc(C56CNC(C5)C6)cn4c3)cc(C)c2n1` [Compound 159] showed an IC50 of 100 to 1000 nM. `N#Cc1cccc2[nH]c(-c3cc(F)c4nc(C5CCNCC5)cn4c3)cc12` [Compound 56, 2-(8-fluoro-2-(piperidin-4-yl)imidazo[1,2-a]pyridin-6-yl)-1H-indole-4-carbonitrile] showed an IC50 of 1000 to 9000 nM. With `Cc1cn2nc(-c3cc(F)c4nc([C@H]5C[C@H](CN(C)C)C5)cn4c3)cc(C)c2n1` [Compound 181, 1-((1r,3r)-3-(6-(2,8-dimethylimidazo[1,2-b]pyridazin-6-yl)-8-fluoroimidazo[1,2-a]pyridin-2-yl)cyclobutyl)-N,N-dimethylmethanamine] the IC50 was under 100 nM. `Cc1cn2nc(-c3cc(F)c4nc(NC(=O)CC5CCCN5)cn4c3)cc(C)c2n1` (centres unmarked) [Compound 273, N-(6-(2,8-dimethylimidazo[1,2-b]pyridazin-6-yl)-8-fluoroimidazo[1,2-a]pyridin-2-yl)-2-(pyrrolidin-2-yl)acetamide] was tested, and the IC50 was under 100 nM. In the case of `Cc1cn2nc(-c3cc(F)c4nc(C5CC6(CNC6)C5)nn4c3)cc(C)c2n1` [Compound 442, 6-(2,8-dimethylimidazo[1,2-b]pyridazin-6-yl)-8-fluoro-2-(2-azaspiro[3.3]heptan-6-yl)-[1,2,4]triazolo[1,5-a]pyridine], the IC50 is reported as 100 to 1000 nM. `Cc1cc(-c2cc(F)c3nn(C4CCNCC4)cc3c2)cc2cn(C)nc12` [Compound 351, 7-fluoro-2′,7′-dimethyl-2-(piperidin-4-yl)-2H,2′H-5,5′-biindazole] showed an IC50 of 100 to 1000 nM. Work on `Fc1cc(-c2ncc3cccn3n2)cn2cc(C3CCNCC3)nc12` [Compound 198, 2-(8-fluoro-2-(piperidin-4-yl)imidazo[1,2-a]pyridin-6-yl)pyrrolo[2,1-f][1,2,4]triazine] yielded an IC50 of 100 to 1000 nM. `Cc1cn2nc(-c3cc(F)c4nn(C5CC6(CNC6)C5)nc4c3)cc(C)c2n1` [Compound 385, 6-(2,8-dimethylimidazo[1,2-b]pyridazin-6-yl)-4-fluoro-2-(2-azaspiro[3.3]heptan-6-yl)-2H-benzo[d][1,2,3]triazole] was tested, and the IC50 was 100 to 1000 nM. Work on `Cc1nc2c(C)cc(-c3cc(F)c4nn(C5CCN(C)CC5)cc4c3)nn2n1` [Compound 359, 6-(7-fluoro-2-(1-methylpiperidin-4-yl)-2H-indazol-5-yl)-2,8-dimethyl-[1,2,4]triazolo[1,5-b]pyridazine] yielded an IC50 of under 100 nM. `CCc1nc(C)cn2cc(-c3cc(F)c4nc(C5CCN(CC)CC5)cn4c3)cc12` [Compound 175, 6-(1-ethyl-3-methylpyrrolo[1,2-a]pyrazin-7-yl)-2-(1-ethylpiperidin-4-yl)-8-fluoroimidazo[1,2-a]pyridine] gave an IC50 of 100 to 1000 nM. Work on `Cc1nc2c(C)cc(-c3cc(F)c4nc(C5CCNCC5)cn4c3)cn2n1` [Compound 123, 6-(8-fluoro-2-(piperidin-4-yl)imidazo[1,2-a]pyridin-6-yl)-2,8-dimethyl-[1,2,4]triazolo[1,5-a]pyridine] yielded an IC50 of 100 to 1000 nM. With `Cc1cn2nc(-c3cc(F)c4nc(C5CCC(N(C)C)CC5)cn4c3)cc(C)c2n1` (centres unmarked) [Compound 168, 4-(6-(2,8-dimethylimidazo[1,2-b]pyridazin-6-yl)-8-fluoroimidazo[1,2-a]pyridin-2-yl)-N,N-dimethylcyclohexan-1-amine] the IC50 was under 100 nM. `Cc1cn2nc(-c3cc(F)c4nn(C5CCN(C)C5)cc4c3)cc(C)c2n1` (centres unmarked) [Compound 366, 6-(7-fluoro-2-(1-methylpyrrolidin-3-yl)-2H-indazol-5-yl)-2,8-dimethylimidazo[1,2-b]pyridazine] was tested, and the IC50 was 1000 to 9000 nM. Molecule `Cc1cn2nc(-c3cc(F)c4nc(C5CCNCC5)cn4c3)cc2c(C)n1` [Compound 195, 2-(8-fluoro-2-(piperidin-4-yl)imidazo[1,2-a]pyridin-6-yl)-4,6-dimethylpyrazolo[1,5-a]pyrazine] has an IC50 of under 100 nM. For `Cc1cn2nc(-c3cc(F)c4nc(C5CCOCC5)cn4c3)cc(C)c2n1` [Compound 169, 6-(8-fluoro-2-(tetrahydro-2H-pyran-4-yl)imidazo[1,2-a]pyridin-6-yl)-2,8-dimethylimidazo[1,2-b]pyridazine], the IC50 was 100 to 1000 nM. Molecule `Cc1cn2nc(-c3cc(F)c4nc(C5CCN(CC(F)F)CC5)cn4c3)cc(C)c2n1` [Compound 174, 6-(2-(1-(2,2-difluoroethyl)piperidin-4-yl)-8-fluoroimidazo[1,2-a]pyridin-6-yl)-2,8-dimethylimidazo[1,2-b]pyridazine] has an IC50 of 100 to 1000 nM. Work on `Cc1cc2nc(-c3cc(F)c4nc([C@H]5[C@@H]6CN(C)C[C@@H]65)cn4c3)cc(C)n2n1` [Compound 223, 5-(8-fluoro-2-((1R,5S,6r)-3-methyl-3-azabicyclo[3.1.0]hexan-6-yl)imidazo[1,2-a]pyridin-6-yl)-2,7-dimethylpyrazolo[1,5-a]pyrimidine] yielded an IC50 of 100 to 1000 nM. With `CCc1nc(C)cn2cc(-c3cc(F)c4nc(C5CCNCC5)cn4c3)cc12` [Compound 30, 6-(1-ethyl-3-methylpyrrolo[1,2-a]pyrazin-7-yl)-8-fluoro-2-(piperidin-4-yl)imidazo[1,2-a]pyridine] the IC50 was under 100 nM. `Cc1cc(-c2cc(F)c3nn(C4CCNCC4)cc3c2)nc2cn(C)nc12` [Compound 353, 5-(7-fluoro-2-(piperidin-4-yl)-2H-indazol-5-yl)-2,7-dimethyl-2H-pyrazolo[4,3-b]pyridine] gave an IC50 of 100 to 1000 nM. `Cc1cn2cc(-c3cc(F)c4nc(C5CCNCC5)nn4c3)cc(F)c2n1` [Compound 151, 8-fluoro-6-(8-fluoro-2-methylimidazo[1,2-a]pyridin-6-yl)-2-(piperidin-4-yl)-[1,2,4]triazolo[1,5-a]pyridine] gave an IC50 of 1000 to 9000 nM. For `Cc1cn2nc(-c3cc(F)c4nc(N5CCC6(CCCN6C)CC5)oc4c3)cc(C)c2n1` [Compound 514, 6-(2,8-dimethylimidazo[1,2-b]pyridazin-6-yl)-4-fluoro-2-(1-methyl-1,8-diazaspiro[4.5]decan-8-yl)benzo[d]oxazole], the IC50 was under 100 nM.
